Read-outs that look alike come from different tables or passages of the source.
Assays:
allergic dogs = assay: Skin tests with giant ragweed pollen extract; type: in vivo, dog
Experimental: Reduction of pollen proteins by the thioredoxin system. Giant ragweed allergen extract, purchased from Bayer Inc., was analyzed for protein by the Bradford assay using bovine γ-globulin as standard (Wong, J. H. et al. (1995) “Thioredoxin and seed proteins” Methods Enzymol 252:228-240). […] The extent of reduction was determined by the SDS-PAGE/monobromobimane procedure as previously described above and also as described by Wong et al. (Ibid.). Gels were visualized under U.V.
Skin tests. Procedures to measure the type I hypersensitivity reaction by skin tests in allergic […] were substantially the same to those previously described above (see, Examples 36, 37 and 39). In brief, Evans blue dye 0.5% (0.2 ml/kg) was injected intravenously 5 minutes prior to skin testing. Aliquots of 0.1 ml of pollen allergen extract were injected intradermally on ventral abdominal skin in half-log dilutions. Skin tests were read blindly by the same experienced blinded observer scoring two perpendicular diameters for each blue spot. Appropriate negative controls (diluted in PBS) were included for each animal tested.
Data analysis. The statistical significance of the skin test results showing the thioxedoxin-linked mitigation of pollen allergens was determined by paired one-tailed, t-tests. […] The t-tests were completed for each dilution series (0.07 to 219 ng allergen) at 0.05 level of significance on all sensitive dogs (df≅8).

Glutenin 30-40 kDa = assay: Reductant specificity of glutenins, mBBr/SDS-PAGE; type: biochemical, Triticum durum
Experimental: (§1) For isolation of insoluble storage proteins, semolina (0.2 g) was extracted sequentially with 1 ml of the following solutions for the indicated times at 25° C.: (1) 50 mM Tris-HCl, pH 7.5 (20 min); (2) 70% ethanol (2 hr); and (3) 0.1 M acetic acid (2 hr). During extraction, samples were placed on an electrical rotator and, in addition, occasionally agitated with a vortex mixer. After extraction with each solvent, samples were centrifuged (12,000 rpm for 5 min) in an Eppendorf microfuge and, supernatant fractions were saved for analysis. In between each extraction, pellets were washed with 1 ml of water, collected by centrifugation as before and the supernatant wash fractions were discarded. By convention, the fractions are designated: (1) albumin/globulin; (2) gliadin; and (3) glutenin.
(§2) Reactions were carried out in 100 mM Tris-HCl buffer, pH 7.9. As indicated, 0.7 μg NTR and 1 μg thioredoxin (both from E. coli unless specified otherwise) were added to 70 μl of this buffer containing 1 mM NADPH and 10 μg of target protein.
(§3) SDS-polyacrylamide electrophoresis of the mBBr-derivatized samples was performed in 15% gels at pH 8.5 as described by Laemmli, U. K. (1970), Nature 227:680-685. Gels of 1.5 mm thickness were developed for 16 hr. at a constant current of 9 mA.
(§4) The Polaroid negatives of fluorescent gels and prints of wet protein stained gels were scanned with a laser densitometer (Pharmacia-LKB UltroScan XL). Fluorescence was quantified by evaluating peak areas after integration with GelScan XL software.

Glutenin 60-110 kDa = assay: Reductant specificity of glutenins, mBBr/SDS-PAGE; type: biochemical, Triticum durum
Experimental: as §1, §2, §3, §4

[1] = system: dogs sensitized to cow's milk; assay: Skin tests, ED50 and relative allergenicity (Example 44); type: in vivo, dog; settings: all dogs tested
Experimental: Reduction and Blocking of Protein Disutfide Bond. […] Following gel filtration with a Sephadex G-25 column (Amersham Pharmacia) to remove reductants, the reduced protein (less than 0.25 mg/ml) was incubated either without addition or with 10 mM oxidized glutathione (GSSG) or 10 mM cystamine for 3 days on ice. The mixtures were then subjected to a second gel filtration on a Sephadex G-25 column to remove excess GSSG and cystamine. If necessary, the resultant preparations were concentrated by ultrafiltration with Centricon YM-3 filter (Millipore). Heat treatment of NTS-reduced BLG was carried out for 1 hour at 55° C. after reduction at 4° C. overnight. Raw cow's milk (47 mg protein/ml) was reduced with 50 mM DTT and blocked with cystamine and GSSG as described above for BLG. Heated milk was prepared by incubation for 1 hour at 55° C. and gel filtration with A Sephadex G-25 column.
Skin Tests. The background of the dog colony, immunization schedule and procedure for skin testing have been previously described in Examples 36-39 and also in del Val et al., 1999, Buchanan et al., 1997, Ermel et al., 1997, Frick and Brooks, 1983, herein incorporated by reference. Here, 3 litters of the 7th generation designated 7FA, 7FB and 7FC were immunized with commercial preparations (Bayer) of cow's milk, soybean and other food extracts (wheat or barley and walnut, Brazil nut and peanut) and also ragweed pollen. BLG samples for testing were prepared in half-log dilutions with PBS; 100 μL of each dilution was injected intradermally on the dog's abdomen.
Estimation of Relative Allergenicity. Wheal area of each spot was plotted by the Lineweaver-Burk double-reciprocal plot to obtain the maximum wheal area. The log of the dose of BLG that effects a half-maximum of wheal area with the control sample, termed Effective Dose 50 (ED50), was calculated and used for statistical analysis. For simplification, ratio of the reciprocal of ED50 to that of the control sample is presented below as relative allergenicity.

trypsin = assay: Trypsin proteolysis of purified milk allergens; type: biochemical; settings: 10 μg NTS reduced protein, 2 μg trypsin
Experimental: The analysis of the reduction was done using the mBBr/SDS-PAGE techniques. Further in this study, when 10 μg of an NTS reduced purified milk allergen protein, β-lactoglobulin (Sigma Chemical Co.), was treated with 2 μg of trypsin, proteolysis was 100% as compared with only 50% for the identically trypsin treated oxidized β-lactoglobulin. […] However, 10 μg of purified α-lactalbumin reduced by the NTS was proteolyzed 80% by trypsin. Also 10 μg of α-lactalbumin reduced by 0.8 μg of thioredoxin and 0.5 mM DTT was 100% proteolyzed by 2 μg of trypsin.

In the case of “Thioredoxin: E. coli thioredoxin reduced by NADPH and NTR”, the “Mitigation of skin test response” value (allergic dogs; Allergen 0.07 ng) is reported as “Not Signiticant”, the “Mitigation of skin test response” value (allergic dogs; Allergen 0.22 ng) is reported as “Not Significant” and the “Mitigation of skin test response” value (allergic dogs; Allergen 0.66 ng) is reported as “Significant”. For the same molecule, the “Mitigation of skin test response” value (allergic dogs; Allergen 2.2 ng) was “Significant”, the “Mitigation of skin test response” value (allergic dogs; Allergen 6.6 ng) was “Significant” and the “Mitigation of skin test response” value (allergic dogs; Allergen 22 ng) was “Significant”. For the same molecule, the “Mitigation of skin test response” value (allergic dogs; Allergen 66 ng) was “Significant”, the “Mitigation of skin test response” value (allergic dogs; Allergen 219 ng, paired one tail t test, P 0.05) was “Not Significant” and the “Glutenin, % Relative Reduction, 30-40 kDa” value (Glutenin 30-40 kDa; thioredoxin (NTS) = 100) was 100%. The “Glutenin, % Relative Reduction, 60-110 kDa” value (Glutenin 60-110 kDa; thioredoxin (NTS) = 100) was 100%.

In the case of “NTS/CYM: BLG treated with cystamine following NTS-reduction”, the “times less allergenic than native (control) BLG, from ED50” value (from here on “times less allergenic than native”) [1] is reported as “about 2.5 times”.

For “NTS/GSSG: BLG treated with GSSG following NTS-reduction”, the “times less allergenic than native” value [1] was “about 2.5 times”.

“NTS-reduced & heated: BLG heated for 1 hour at 55° C. following NTS-reduction at 4° C. overnight” was tested, and the “times less allergenic than native” value [1] was “about 5 times”.

In the case of N[C@@H](CCC(=O)N[C@@H](CS)C(=O)NCC(=O)O)C(=O)O [Glutathione, glutathione, reference compound], the “Glutenin, % Relative Reduction, 30-40 kDa” value (Glutenin 30-40 kDa) is reported as 29% and the “Glutenin, % Relative Reduction, 60-110 kDa” value (Glutenin 60-110 kDa) is reported as 31%.

B1: α-lactalbumin: purified milk allergen (Sigma) (protein, UniProt P00711 20-142, looked up)
Alpha-lactalbumin: EQLTKCEVFRELKDLKGYGGVSLPEWVCTTFHTSGYDTQAIVQNNDSTEYGLFQINNKIWCKDDQNPHSSNICNISCDKFLDDDLTDDIMCVKKILDKVGINYWLAHKALCSEKLDQWLCEKL
B1 was tested, and the proteolysis by trypsin (trypsin) was 80%.

B2: Glutaredoxin: E. coli glutaredoxin with NADPH, reduced glutathione and glutathione reductase (NGS) (protein, UniProt P68688 1-85, looked up)
Glutaredoxin 1: MQTVIFGRSGCPYCVRAKDLAEKLSNERDDFQYQYVDIRAEGITKEDLQQKAGKPVETVPQIFVDQQHIGGYTDFAAWVKENLDA
modifications: with NADPH, glutathione, glutathione reductase
With B2 the “Glutenin, % Relative Reduction, 30-40 kDa” value (Glutenin 30-40 kDa; thioredoxin (NTS) = 100) was 40% and the “Glutenin, % Relative Reduction, 60-110 kDa” value (Glutenin 60-110 kDa; thioredoxin (NTS) = 100) was 50%.
